What was measured:
Cercospora arachidicola = experiment: Action against Cercospora arachidicola on peanut plants (curative action); type: in vivo; conditions: Mycosphaerella arachidis, 288 h, 160 ppm spray, peanut cv. Tamnut, evaluated 12 days after treatment, read-out: action (leaf area infected with Cercospora arachidicola as a percentage compared with the infected control)
Procedure: Action Against Cercospora arachidicola on Peanut Plants (Curative Action)
Two peanut plants cv. “Tamnut” in the 4-leaf stage are sprayed with a conidia suspension of Cercospora arachidicola (approx. 200,000 conidia/ml) and subsequently incubated at 25-26° C. and under dew-point conditions. After two days, the plants are sprayed thoroughly from all sides with a spray mixture prepared with a wettable powder of the active substance (with 160 ppm of active ingredient). The treated plants are subsequently incubated in a controlled-environment cabinet under the following conditions: 25-27° C. and 80% atmospheric humidity during the day, 20° C. and dew-point conditions during the night; the photoperiod in each case is 16 hours. 12 days after the treatment, the test is evaluated by determining the leaf area infected with Cercospora arachidicola as a percentage compared with the infected control.

Alternaria brassicae = Alternaria brassicae (protective action) on cabbage seedlings; type: in vivo; conditions: 50 ppm spray, cabbage cv. Vorbote, evaluated 2-5 days after infection, read-out: action (leaf area infected with Alternaria brassicae as a percentage compared with the infected, untreated control)
Procedure: Alternaria brassicae (Protective Action)
4 cabbage seedlings, cv. “Vorbote”, in the 6-leaf stage, distributed to 2 pots, are sprayed thoroughly with a spray mixture prepared with a wettable powder of the active substance (with 50 ppm of active ingredient) and subsequently cultured further in a controlled-environment cabinet at 19° C. and with 16 hours illumination per day. Two days after the treatment, the plants are infected by spraying with an aqueous conidia suspension (approx. 30,000 conidia/ml). The cabbage plants are then incubated at 24-26° C., under dew-point conditions and with a photoperiod of 16 hours. The test is evaluated 2-5 days after the infection by determining the leaf area infected with Alternaria brassicae as a percentage compared with the infected, untreated control.

Plasmopara viticola = Plasmopara viticola (protective action) on grapevine seedlings; type: in vivo; conditions: 144 h, 160 ppm spray, grapevine cv. Riesling x Sylvaner, day 6 after infection, read-out: action (leaf area infected with Plasmopara viticola as a percentage compared with the infected, untreated control)
Procedure: Plasmopara viticola (Protective Action)
2 grapevine seedlings cv. Riesling×Sylvaner, each in the 4-5 leaf stage, are sprayed thoroughly from all sides with a spray mixture prepared with a wettable powder of the active substance (with 160 ppm of active ingredient) and subsequently cultured further in a controlled-environment cabinet at 17° C., 70-80% relative atmospheric humidity and with a photoperiod of 16 hours. After 6 days, the test plants are infected by spraying the undersides of the leaves with zoosporangia of Plasmopara viticola, suspended in distilled water (approx. 300,000 sporangia/ml). The grapevine plants are then incubated as follows: 1 day at 22° C. and under dew-point conditions in the dark and subsequently 4 days in the greenhouse. To induce fructification of Plasmopara viticola, the grapevines are transferred to a controlled-environment cabinet with dew-point conditions at 22° C. on day 5 after the infection.
The tests are carried out in each case on day 6 after the infection by determining the leaf area infected with Plasmopara viticola as a percentage compared with the infected, untreated control.

Venturia inaequalis = Venturia inaequalis (curative action) on apple seedlings; type: in vivo; conditions: 50 ppm spray, apple cv. Golden Delicious, evaluated 9-10 days after treatment, read-out: action (leaf area covered in Venturia inaequalis as a percentage compared with the infected control)
Procedure: Venturia inaequalis (Curative Action)
Two apple seedlings cv. “Golden Delicious” are sprayed with a conidia suspension of Venturia inaequalis and subsequently incubated at 18° C. and under dew-point conditions. After 24 hours, the plants are sprayed thoroughly from all sides with a spray mixture prepared with a wettable powder of the active substance (with 50 ppm of active ingredient). The treated apple seedlings are subsequently cultured further in the greenhouse. 9-10 days after the treatment, the test is evaluated by determining the leaf area covered in Venturia inaequalis as a percentage compared with the infected control.

Erysiphe graminis = Erysiphe graminis (protective action) on wheat seedlings; type: in vivo; conditions: Blumeria graminis, 168 h, 160 ppm spray, wheat cv. Lita, evaluated 7 days after infection, read-out: action (leaf area covered in Erysiphe graminis as a percentage compared with the infected control)
Procedure: Erysiphe graminis (Protective Action)
30-40 wheat seedlings cv. “Lita” in the 1-leaf stage (distributed to two pots of ø7 cm) are sprayed thoroughly with a spray mixture prepared with a wettable powder of the active substance (with 160 ppm of active ingredient) and then cultured further in the greenhouse. One day after the treatment, the plants are dusted with conidia of Erysiphe graminis. The test is evaluated 7 days after the infection by determining the size of the leaf area covered in Erysiphe graminis as a percentage compared with the infected control.
Untreated, but infected control plants show a level of infection with Erysiphe of 100%.

| Compound | melting point [°C] | pest or weed control at 160 ppm (Cercospora arachidicola) [%] | pest or weed control at 50 ppm (Alternaria brassicae) [%] | pest or weed control at 160 ppm (Plasmopara viticola) [%] | pest or weed control at 50 ppm (Venturia inaequalis) [%] | pest or weed control at 160 ppm (Erysiphe graminis) [%] |
| --- | --- | --- | --- | --- | --- | --- |
| CO/N=C(\C(=O)OC)c1ccccc1CON=C(C)c1cc2ccccc2o1 [Compound 32] | 110 to 112 | > 75 | > 75 | > 75 | > 75 |  |
| CO/N=C(\C(=O)OC)c1ccccc1CON=C(C)c1ccc(F)cc1 [Compound 34] | 89 to 90 | > 75 | > 75 |  | > 75 | > 75 |
| CO/N=C(\C(=O)OC)c1ccccc1CON=C(C)c1cc(C(F)(F)F)cc(C(F)(F)F)c1 [Compound 33] | 76 to 78 | > 75 | > 75 |  | > 75 | > 75 |

— patent US6355634B1, “Aromatic compounds” (Bayer Aktiengesellschaft, priority 1990, dated 2002)
